We go through eleven molecules from US20110028441A1, “NOVEL PHENYL-SUBSTITUTED PIPERAZINO-DIHYDROTHIENOPYRIMIDINES” (BOEHRINGER INGELHEIM INTERNATIONAL GMBH, priority 2007, published 2011).

Broadly, the inhibition is the change of the read-out against control, counted positive when it falls.

Where two headings read alike, the source gives them in different places.

The assay deals with PDE4B (Homo sapiens, UniProt Q07343). The assay is described as follows: Scintillation Proximity (SPA) Assay of PDE4B enzyme inhibition. Conditions: read-out: % Inhibition PDE4B @ 1 μM. The format is biochemical. As to the method: The inhibitions (in %) at 1 μM of the individual Example substances are included in the following Tables of Examples and were determined as follows:
The Scintillation Proximity (SPA) Assays (GE Healthcare, No. TRKQ7090) make use of the different affinities of cyclic 3′-5′-adenosine monophosphate (cAMP, low affinity) and linear 5′-adenosine monophosphate (AMP, high affinity) for yttrium silicate scintillator beads. The cAMP specific phosphodiesterase (PDE) PDE4B cleaves the 3′-phosphoester bond of the tritium-labelled [H3]-cAMP to form the [H3]-5′-AMP. Because of its higher affinity for the scintillator beads this [H3]-AMP accumulates on the beads and causes scintillation events (flashes of light) which are measured in a Wallac Microbeta Scintillation Counter.
The test starts with one hours incubation of [H3]-cAMP with the PDE4B enzyme in assay buffer at 30° C., once with the Example substance that is to be tested (in a concentration of 1 μM) and once without the Example substance that is to be tested. After this incubation the reaction is stopped by the addition of the beads. The beads are given an opportunity to settle over the next 45 minutes, then they are measured in the Scintillation Counter. If the substance is capable of inhibiting the enzymatic activity of the PDE4B, less [H3]-AMP is formed during the incubation phase and fewer scintillation events can be measured.
Background: Scintillation proximity formats need no separation of bound from free tracer.

The mark [1] stands for this setting: test substance 1 μM, one hour incubation of [H3]-cAMP with PDE4B enzyme at 30° C.

Chain of PDE4B (Q07343 whole entry, species assumed): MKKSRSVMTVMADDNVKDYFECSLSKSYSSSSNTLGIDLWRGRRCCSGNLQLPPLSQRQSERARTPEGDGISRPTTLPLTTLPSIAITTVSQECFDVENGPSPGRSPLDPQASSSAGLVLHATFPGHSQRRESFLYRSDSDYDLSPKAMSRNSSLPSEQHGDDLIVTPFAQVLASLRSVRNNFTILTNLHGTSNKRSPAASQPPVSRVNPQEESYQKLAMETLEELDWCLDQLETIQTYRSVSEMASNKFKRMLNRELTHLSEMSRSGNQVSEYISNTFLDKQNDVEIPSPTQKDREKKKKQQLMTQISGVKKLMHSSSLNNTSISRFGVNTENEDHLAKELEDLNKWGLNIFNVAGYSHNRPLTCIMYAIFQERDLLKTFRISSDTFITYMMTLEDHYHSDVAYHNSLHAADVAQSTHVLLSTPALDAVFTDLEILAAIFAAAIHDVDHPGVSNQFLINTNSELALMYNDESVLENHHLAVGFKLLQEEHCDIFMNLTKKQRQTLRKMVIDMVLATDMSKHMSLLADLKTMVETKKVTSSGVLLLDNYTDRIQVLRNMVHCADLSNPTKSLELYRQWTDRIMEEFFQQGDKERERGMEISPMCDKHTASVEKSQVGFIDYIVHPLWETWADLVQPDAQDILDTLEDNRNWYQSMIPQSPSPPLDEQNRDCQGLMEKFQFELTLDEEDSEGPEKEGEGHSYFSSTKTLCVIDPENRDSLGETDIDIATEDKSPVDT

With `CC(C)[C@H](CO)Nc1nc(N2CCN(c3cc(Cl)cc(Cl)c3)CC2)nc2c1[S+]([O-])CC2` (stereo partly drawn) [Example 68, (R)-2-{2-[4-(3,5-DICHLOROPHENYL)-PIPERAZIN-1-YL]-5-OXO-6,7-DIHYDRO-5H-5λ^4-THIENO[3,2-D]PYRIMIDIN-4-YLAMINO}-3-METHYLBUTAN-1-OL], the inhibition at 1 µM under setting [1] came to 96%. As for `Cc1cc(Cl)ccc1N1CCN(c2nc3c(c(N[C@@H](CO)C(C)C)n2)[S+]([O-])CC3)CC1` (stereo partly drawn) [Example 75, (R)-2-{2-[4-(4-CHLORO-2-METHYLPHENYL)-PIPERAZIN-1-YL]-5-OXO-6,7-DIHYDRO-5H-5λ^4-THIENO[3,2-D]PYRIMIDIN-4-YLAMINO}-3-METHYLBUTAN-1-OL], the inhibition at 1 µM under setting [1] amounted to 90%. Still for that read-out and setting: next, `Cc1cc(Cl)ccc1N1CCN(c2nc3c(c(NC4(CO)CC4)n2)[S+]([O-])CC3)CC1` (centres unmarked) [Example 81, (1-{2-[4-(4-CHLORO-2-METHYLPHENYL)-PIPERAZIN-1-YL]-5-OXO-6,7-DIHYDRO-5H-5λ^4-THIENO[3,2-D]PYRIMIDIN-4-YLAMINO}-CYCLOPROPYL)-METHANOL]: 95%. Regarding `Cc1cc(Cl)ccc1N1CCN(c2nc3c(c(N[C@H]4CCC(=O)N(C)C4)n2)[S+]([O-])CC3)CC1` (stereo partly drawn) [Example 90, (S)-5-{2-[4-(4-CHLORO-2-METHYLPHENYL)-PIPERAZIN-1-YL]-5-OXO-6,7-DIHYDRO-5H-5λ^4-THIENO[3,2-D]PYRIMIDIN-4-YLAMINO}-1-METHYLPIPERIDIN-2-ONE], the inhibition at 1 µM came to 97%. For the molecule `Cc1cc(Cl)ccc1N1CCN(c2nc3c(c(NC4CCOCC4)n2)[S+]([O-])CC3)CC1` (centres unmarked) [Example 98, {2-[4-(4-CHLORO-2-METHYLPHENYL)-PIPERAZIN-1-YL]-5-OXO-6,7-DIHYDRO-5H-5λ^4-THIENO[3,2-D]PYRIMIDIN-4-YL}-(TETRAHYDROPYRAN-4-YL)-AMINE], under setting [1], the inhibition at 1 µM came out at 96%. For the molecule `[O-][S+]1CCc2nc(N3CCN(c4cc(Cl)cc(Cl)c4)CC3)nc(Nc3cccc(F)c3)c21` (centres unmarked) [Example 99, {2-[4-(3,5-DICHLOROPHENYL)-PIPERAZIN-1-YL]-5-OXO-6,7-DIHYDRO-5H-5λ^4-THIENO[3,2-D]PYRIMIDIN-4-YL}-(3-FLUOROPHENYL)-AMINE], the inhibition at 1 µM under setting [1] was 96%. `Cc1cc(C)cc(N2CCN(c3nc4c(c(Nc5cccc(F)c5)n3)[S+]([O-])CC4)CC2)c1` (centres unmarked) [Example 100, {2-[4-(3,5-DIMETHYLPHENYL)-PIPERAZIN-1-YL]-5-OXO-6,7-DIHYDRO-5H-5λ^4-THIENO[3,2-D]PYRIMIDIN-4-YL}-(3-FLUOROPHENYL)-AMINE]: the inhibition at 1 µM came out at 97%. Turning to `[O-][S+]1CCc2nc(N3CCN(c4ccc(Cl)cc4F)CC3)nc(NC3(CO)CC3)c21` (centres unmarked) [Example 105, (1-{2-[4-(4-CHLORO-2-FLUOROPHENYL)-PIPERAZIN-1-YL]-5-OXO-6,7-DIHYDRO-5H-5λ^4-THIENO[3,2-D]PYRIMIDIN-4-YLAMINO}-CYCLOPROPYL)-METHANOL], the inhibition at 1 µM under setting [1] amounted to 94%.

Take `[O-][S+]1CCc2nc(N3CCN(c4ccc(Cl)cc4F)CC3)nc(NC3CCOCC3)c21` (centres unmarked) [Example 107, {2-[4-(4-CHLORO-2-FLUOROPHENYL)-PIPERAZIN-1-YL]-5-OXO-6,7-DIHYDRO-5H-5λ^4-THIENO[3,2-D]PYRIMIDIN-4-YL}-(TETRAHYDROPYRAN-4-YL)-AMINE]: the inhibition at 1 µM under setting [1] is 94%. Same read-out and setting: the figure for `[O-][S+]1CCc2nc(N3CCN(c4ccc(Cl)cc4F)CC3)nc(Nc3cccc(F)c3)c21` (centres unmarked) [Example 109, {2-[4-(4-CHLORO-2-FLUOROPHENYL)-PIPERAZIN-1-YL]-5-OXO-6,7-DIHYDRO-5H-5λ^4-THIENO[3,2-D]PYRIMIDIN-4-YL}-(3-FLUOROPHENYL)-AMINE] is 92%; for `CC(C)[C@H](CO)Nc1nc(N2CCN(c3ccc(Cl)cc3F)CC2)nc2c1[S+]([O-])CC2` (stereo partly drawn) [Example 111, (R)-2-{2-[4-(4-CHLORO-2-FLUOROPHENYL)-PIPERAZIN-1-YL]-5-OXO-6,7-DIHYDRO-5H-5λ^4-THIENO[3,2-D]PYRIMIDIN-4-YLAMINO}-3-METHYLBUTAN-1-OL] it is 92%.
